In patent US8507674B2, “Quorum sensing inhibitor” (The University of Tokyo, priority 2007, dated 2013):

How the values were obtained:
Burkholderia glumae [1] = experiment: Test Example 9: amount of toxoflavin produced in culture solution, with comparative compound; format: cell-based; conditions: 0, 20, 40, 60, 80 or 100 μM, shake culturing 20 hours, FIG. 6
Protocol: Burkholderia glumae was inoculated into an LB culture medium (produced by BD (Difco LB Broth: containing tryptone (10.0 g), yeast extract (5.0 g), and sodium chloride (10.0 g)), and cultured at 37° C. overnight. The thus-obtained culture solution was subjected to bacterial collection using a centrifuge, and washed with an LB culture medium twice using a fresh LB culture medium each time. To the bacterial cell a fresh LB culture medium was added, and then Compound (1) produced in Production Example 1 was added thereto in such a manner that its final concentration became a predetermined value (i.e., 0, 20, 40, 60, 80 or 100 μM), followed by shake culturing for 20 hours. The amount of toxoflavin produced by the bacterial cell in the culture solution was obtained by the following procedure.
Each culture solution was filtered by a 0.22-μm membrane filter, and 1 mL of the filtrate was isolated. One mL of chloroform was added to the filtrate, followed by extraction. The thus-obtained chloroform layer was concentrated under reduced pressure, and an 80% (V/V) an aqueous methanol solution was added to and dissolved in the residue. The absorbance (at 260 nm) of the solution was measured, and the toxin doses were calculated from the calibration curve, which was obtained using chemically synthesized standard toxin. […]

[2] = system: (gfp expression PAO1-strain); experiment: Test Example 7: biofilm formation inhibition in flow cell system; format: cell-based, Burkholderia aeruginosa; conditions: test liquid at 200 μL per minute, observed up to 84 hours by confocal microscope, FIG. 5
Protocol: Using the flow cell system shown in FIG. 4, the […] aeruginosa biofilm formation inhibition effect of Compound (2), which was produced using Production Example 2, was evaluated.
A culture medium bottle (1), peristaltic pump (2), glass cell (4) and waste fluid bottle (5) are connected via a silicon tube (6) so that a culture medium (9) is supplied to the glass cell (4) from the culture medium bottle (1) using the peristaltic pump (2). The system includes an air removal section (3) between the peristaltic pump (2) and a turncock (7a) for removing entrained air. All components in the flow cell system were sterilized using gamma rays or an autoclave.
As described later, the inhibitory effect against biofilm formation of each of the compounds can be examined in the following manner. Bacteria are cultured in a glass cell (4) to grow a biofilm on the inner wall of the cell, and a test liquid containing one of the compounds is applied to the biofilm. Then the state of the biofilm is observed to evaluate the inhibitory effect against biofilm formation of the compound using a spectral confocal and multiphoton microscope (Leica TCS SP2: produced by Leica). […]

[3] = system: Porphyromonas gingivalis 381-strain; experiment: Test Example 8: biofilm formation inhibition on hydroxyapatite disks in flow cell system; format: cell-based
Protocol: Using the flow cell system shown in FIG. 4, the Porphyromonas gingivalis biofilm formation inhibition effect of Compound (2), which was produced in Production Example 2, was evaluated.
Bacteria: Periodontitis pathogenic bacteria Porphyromonas gingivalis 381-strain (clinical strain) were used.
Culture Medium: A GAM culture medium containing […] and 1 μg/L menadione was used.
Bacterial Suspension The 381-strain was inoculated into the GAM culture medium, and cultivated until the stationary phase (OD550=1.8). Then the culture medium was diluted 20-fold by the GAM culture medium described above.
Test liquid: The test liquid was prepared by dissolving Compound (2) into DMSO to obtain 100 μM of DMSO solution of Compound (2). […]
After the cultivation, the HA disks were dipped in 300 μL of sterile distilled water, and treated by supersonic waves for 30 minutes at 4° C. […] Then, the turbidity of 10 μL of the suspension liquid was measured with an absorptiometer (C07500 calorimeter, produced by Funakoshi) (measurement wavelength=550 nm).
A mean OD was found based on the resulting OD values, excluding the minimum and maximum values. Likewise, the turbidity of the control test liquid was obtained and determined as a control OD value, and then the control mean OD value was found in the same manner. […]

Burkholderia glumae [4] = experiment: Test Example 2: number of microorganisms in culture solution (colony count); format: cell-based; conditions: final concentration 100 μM, after 36 hours of cultivation, FIG. 1
Protocol: Burkholderia glumae was inoculated into an LB culture medium, and cultured at 37° C. overnight. The thus-obtained culture solution was subjected to bacterial collection using a centrifuge, washed with an LB culture medium twice using a fresh LB culture medium each time. To the bacterial cell a fresh LB culture medium was added to prepare a culture suspension of about 3.0×10^5 cfu/mL. Thereafter, each of Compound (1), Compound (2), Compound (3), Compound (4), Compound (5), Compound (8) and Compound (9) produced in Production Examples 1-5 were added to the culture suspension in such a manner that their final concentration became 100 μM, followed by shake culturing for 36 hours. The number of microorganisms in the culture solution 24 hours and 36 hours after the initiation of the culturing were obtained by the following procedure. Specifically, a portion of the culture solution was removed and diluted 1,000-fold, and then seeded to an LB culture medium agar plate. The number of colonies were counted to obtain the number of microorganisms.
The same experiments were conducted, as comparative tests, using Comparative Compounds (1)-(3), which were produced in Reference Examples 1-3 and the below-explained compound (Comparative Compound (4)), which is disclosed in Patent Document 1, thereby obtaining the number of microorganisms.

## CCCCCCCCCC(=O)CC(=O)Nc1ccccc1O [Comparative Compound (5), reference compound]
Burkholderia glumae [1]
  toxin doses produced by bacteria (toxoflavin): almost no change

## CCCCCc1cc(=O)n2cccc(O)c2n1 [Compound (2), 9-hydroxy-2-n-pentyl-4H-pyrid[1,2-a]pyrimidin-4-one]
[2]
  biofilm formation on inner wall of glass cell: biofilm formation was not observed
[3]; 100 μM, 14 days circulation, turbidity of biofilm suspension at 550 nm
  Mean OD Value: 0.041
[3]; Porphyromonas gingivalis, 381STRAIN, 336 h, read-out: Inhibition Rate (%) (biofilm formation inhibition rate)
  inhibition at 100 µM: 56.4%

## CCc1cc(=O)n2cccc(O)c2n1 [Compound (8), 9-hydroxy-2-ethyl-4H-pyrid[1,2-a]pyrimidin-4-one]
Burkholderia glumae [4]
  control activity against Burkholderia glumae (number of microorganisms): can kill almost all Burkholderia glumae

## CCCCc1cc(=O)n2cccc(O)c2n1 [Compound (9), 9-hydroxy-2-n-butyl-4H-pyrid[1,2-a]pyrimidin-4-one]
Burkholderia glumae [4]
  control activity against Burkholderia glumae (number of microorganisms): can kill almost all Burkholderia glumae
